Data taken from patent publication US11304929B2, “Tosylacetate based compounds and derivatives thereof as PHGDH inhibitors” (priority 2017, dated 2022).
Where two headings read alike, the source gives them in different places.

Assays:
PHGDH = PHGDH (Homo sapiens (Human), UniProt O43175); assay: 3-Phosphoglycerate Dehydrogenase (PHGDH) Fluorescence Intensity Assay, run at two NAD/3-PG ratios: PHGDH_HIGH_NAD/3-PG (250 μM NAD/500 μM 3-PG) and PHGDH_500_NAD/3-PG (500 μM NAD/500 μM 3-PG); format: biochemical
PHGDH, sequence (O43175 2-533 limits assumed): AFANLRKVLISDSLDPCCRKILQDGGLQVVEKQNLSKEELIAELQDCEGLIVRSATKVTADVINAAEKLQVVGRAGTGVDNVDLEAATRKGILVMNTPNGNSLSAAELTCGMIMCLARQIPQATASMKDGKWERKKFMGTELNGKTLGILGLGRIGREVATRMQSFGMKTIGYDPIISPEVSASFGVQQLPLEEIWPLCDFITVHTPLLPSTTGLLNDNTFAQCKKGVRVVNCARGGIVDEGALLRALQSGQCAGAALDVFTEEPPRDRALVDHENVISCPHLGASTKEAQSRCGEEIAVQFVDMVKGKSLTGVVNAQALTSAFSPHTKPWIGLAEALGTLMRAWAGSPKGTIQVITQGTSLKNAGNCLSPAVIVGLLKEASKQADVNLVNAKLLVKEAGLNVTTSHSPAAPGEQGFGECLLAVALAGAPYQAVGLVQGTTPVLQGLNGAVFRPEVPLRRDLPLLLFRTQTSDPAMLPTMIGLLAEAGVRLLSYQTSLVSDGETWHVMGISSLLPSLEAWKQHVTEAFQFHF

MDA-MB-468 = assay: 13C3 Serine Assay MDA-MB-468 (13C3 serine levels by LC/MS/MS); format: cell-based; conditions: Homo sapiens; MDA-MB-468 cells, 13C3 serine levels by LC/MS/MS; read-out: IC50 (13CSERINE)
Description: Cells are cultivated in Medium I in a 75 mL flask.
Day 1: 5000 cells in 180 μL Medium I/well were seeded into a 96-well plate. Plates were incubated at 37° C. in a 5% CO2 incubator overnight.
Day 2: 10 mM DMSO stock from test compounds were serially pre-diluted with Medium I (See dilution scheme: for the first well 20 μL DMSO stock are diluted with 180 μL Medium I. From this 1000 μM solution further seven 1:3 (1+2) dilution are prepared with Medium I). 20 μL of these pre-dilutions are transferred in duplicates to the 96-well plate of Day 1. After incubation at 37° C. in a CO2 incubator for 1 hour the medium was removed, 100 μL PBS (tempered to room temperature) added and subsequently removed again.
180 μL Medium II were then added per well and 20 μL of serial dilutions of test compounds in Medium II (as described before) were transferred per well as above. After 180 minutes incubation at 37° C. in a CO2 incubator the medium was again cautiously removed.
After the addition of 100 μL methanol: H2O (80:20, v:v, pre-cooled to −80° C.) the plates were sealed immediately and frozen at −80° C.
At day of measurement plates were thawn, centrifuged and the supernatant evaporated. The samples were resuspended in 100 μl water for tandem mass spectrometry.
^13C3 serine levels were analyzed with LC/MS/MS using Multiple Reaction Monitoring (MRM).
IC50 values were computed from these values using a 4 parametric logistic model.

[1] = 250 μM NAD/500 μM 3-PG, read-out: IC50 (PHGDH_HIGH_NAD/3-PG)
[2] = 500 μM NAD/500 μM 3-PG, read-out: IC50 (PHGDH_500_NAD/3-PG)

Compound	IC50 (PHGDH; [1])	IC50 (MDA-MB-468)	IC50 (PHGDH; [2])
COC(=O)C(C)S(=O)(=O)c1ccc([C@@H](C)NC(=O)c2cc3c(Cl)cc(C)cc3n2C)cc1 (stereo partly drawn) [Example 05-009, methyl 2-{4-[(1R)-1-[(4-chloro-1,6-dimethyl-1H-indol-2-yl)formamido]ethyl]benzenesulfonyl}propanoate]	1680 nM	1.6 nM	–
COC(=O)C1(S(=O)(=O)c2ccc([C@@H](C)NC(=O)c3cc4c(Cl)cc(C)cc4n3C)cc2)CCOCC1 [Example 05-010, methyl 4-{4-[(1R)-1-[(4-chloro-1,6-dimethyl-1H-indol-2-yl)formamido]ethyl]benzenesulfonyl}oxane-4-carboxylate]	11200 nM	3.7 nM	–
CCOC(=O)C(C)S(=O)(=O)c1ccc([C@@H](C)NC(=O)c2cc3c(Cl)cc(C)cc3n2C)cc1 (stereo partly drawn) [Example 05-011, ethyl 2-{4-[(1R)-1-[(4-chloro-1,6-dimethyl-1H-indol-2-yl)formamido]ethyl]benzenesulfonyl}propanoate]	5020 nM	3.9 nM	–
Cc1cc(Cl)c2cc(C(=O)N[C@H](C)c3ccc(S(=O)(=O)C(C)(C)C(=O)OC(C)C)cc3)n(C)c2c1 [Example 05-012, propan-2-yl 2-{4-[(1R)-1-[(4-chloro-1,6-dimethyl-1H-indol-2-yl)formamido]ethyl]benzenesulfonyl}-2-methylpropanoate]	25100 nM	906 nM	–
CCC(C(=O)OC)S(=O)(=O)c1ccc([C@@H](C)NC(=O)c2cc3c(Cl)cc(C)cc3n2C)cc1 (stereo partly drawn) [Example 05-013, methyl 2-{4-[(1R)-1-[(4-chloro-1,6-dimethyl-1H-indol-2-yl)formamido]ethyl]benzenesulfonyl}butanoate]	5530 nM	166 nM	–
COC(=O)C(C)(C)S(=O)(=O)c1ccc([C@@H](CO)NC(=O)c2cc3c(Cl)c(Cl)c(C)cc3n2C)cc1 [Example 05-017, methyl 2-{4-[(1S)-1-[(4,5-dichloro-1,6-dimethyl-1H-indol-2-yl)formamido]-2-hydroxyethyl]benzenesulfonyl}-2-methylpropanoate]	1230 nM	0.3 nM	2960 nM
COCCOC(=O)C(C)(C)S(=O)(=O)c1ccc([C@@H](C)NC(=O)c2cc3c(Cl)c(Cl)c(C)nc3n2C)cc1 [Example 05-018, 2-methoxyethyl 2-{4-[(1R)-1-({4,5-dichloro-1,6-dimethyl-1H-pyrrolo[2,3-b]pyridin-2-yl}formamido)ethyl]benzenesulfonyl}-2-methylpropanoate]	5330 nM	142 nM	–
COC(=O)C1(S(=O)(=O)c2ccc([C@@H](C)NC(=O)c3cc4c(Cl)cc(C)cc4n3C)cc2)CC1 [Example 05-019, methyl 1-{4-[(1R)-1-[(4-chloro-1,6-dimethyl-1H-indol-2-yl)formamido]ethyl]benzenesulfonyl}cyclopropane-1-carboxylate]	5310 nM	509 nM	–
COC(=O)C1(S(=O)(=O)c2ccc([C@@H](C)NC(=O)c3cc(-c4ccc(F)cc4)nn3C)cc2)CCOCC1 [Example 06-001, methyl 4-{4-[(1R)-1-{[3-(4-fluorophenyl)-1-methyl-1H-pyrazol-5-yl]formamido}ethyl]benzenesulfonyl}oxane-4-carboxylate]	7700 nM	25400 nM	–
COC(=O)C(C)(C)S(=O)(=O)c1ccc([C@@H](C)NC(=O)c2cc(-c3ccc(F)cc3)nn2C)cc1 [Example 06-002, methyl 2-{4-[(1R)-1-{[3-(4-fluorophenyl)-1-methyl-1H-pyrazol-5-yl]formamido}ethyl]benzenesulfonyl}-2-methylpropanoate]	14700 nM	1880 nM	–
Cc1cc(Cl)c2cc(C(=O)N[C@H](C)c3ccc(S(=O)(=O)C4(C(=O)O)CCOCC4)cc3)n(C)c2c1 [Example 07-002, 4-{4-[(1R)-1-[(4-chloro-1,6-dimethyl-1H-indol-2-yl)formamido]ethyl]benzenesulfonyl}oxane-4-carboxylic acid]	7 nM	6900 nM	–
Cc1cc(Cl)c2cc(C(=O)N[C@H](C)c3ccc(S(=O)(=O)C(C)(C)C(=O)O)cc3)n(C)c2c1 [Example 07-005, 2-{4-[(1R)-1-[(4-chloro-1,6-dimethyl-1H-indol-2-yl)formamido]ethyl]benzenesulfonyl}-2-methylpropanoic acid]	12 nM	1190 nM	–
CCCC(C(=O)O)S(=O)(=O)c1ccc([C@@H](C)NC(=O)c2cc3c(Cl)cc(C)cc3n2C)cc1 (stereo partly drawn) [Example 07-012, 2-{4-[(1R)-1-[(4-chloro-1,6-dimethyl-1H-indol-2-yl)formamido]ethyl]benzenesulfonyl}pentanoic acid]	6 nM	2390 nM	16 nM
CCOCCOCCOC(=O)CS(=O)(=O)c1ccc([C@@H](C)NC(=O)c2cc3c(Cl)cc(C)cc3n2C)cc1 [Example 09-001, 2-(2-ethoxyethoxy)ethyl 2-{4-[(1R)-1-[(4-chloro-1,6-dimethyl-1H-indol-2-yl)formamido]ethyl]benzenesulfonyl}acetate]	289 nM	53.8 nM	–
CC(=O)OCCOC(=O)CS(=O)(=O)c1ccc([C@@H](C)NC(=O)c2cc3c(Cl)cc(C)cc3n2C)cc1 [Example 09-002, 2-(acetyloxy)ethyl 2-{4-[(1R)-1-[(4-chloro-1,6-dimethyl-1H-indol-2-yl)formamido]ethyl]benzenesulfonyl}acetate]	230 nM	69 nM	–
COCCOC(=O)CS(=O)(=O)c1ccc([C@@H](C)NC(=O)c2cc3c(Cl)c(Cl)c(C)nc3n2C)cc1 [Example 09-003, 2-methoxyethyl 2-{4-[(1R)-1-({4,5-dichloro-1,6-dimethyl-1H-pyrrolo[2,3-b]pyridin-2-yl}formamido)ethyl]benzenesulfonyl}acetate]	286 nM	82.8 nM	–
CO[C@@H](C)COC(=O)CS(=O)(=O)c1ccc([C@@H](C)NC(=O)c2cc3c(Cl)cc(C)cc3n2C)cc1 [Example 09-004, (2S)-2-methoxypropyl 2-{4-[(1R)-1-[(4-chloro-1,6-dimethyl-1H-indol-2-yl)formamido]ethyl]benzenesulfonyl}acetate]	394 nM	78.6 nM	–
Cc1cc(Cl)c2cc(C(=O)N[C@H](C)c3ccc(S(=O)(=O)CC(=O)OCCOCCO)cc3)n(C)c2c1 [Example 09-005, 2-(2-hydroxyethoxy)ethyl 2-{4-[(1R)-1-[(4-chloro-1,6-dimethyl-1H-indol-2-yl)formamido]ethyl]benzenesulfonyl}acetate]	197 nM	139 nM	–
Cc1cc(Cl)c2cc(C(=O)N[C@H](C)c3ccc(S(=O)(=O)CC(=O)OCCO)cc3)n(C)c2c1 [Example 09-007, 2-hydroxyethyl 2-{4-[(1R)-1-[(4-chloro-1,6-dimethyl-1H-indol-2-yl)formamido]ethyl]benzenesulfonyl}acetate]	166 nM	23.9 nM	–
Cc1cc(Cl)c2cc(C(=O)N[C@H](C)c3ccc(S(=O)(=O)CC(=O)OCc4cccc(C(F)(F)F)c4)cc3)n(C)c2c1 [Example 09-011, [3-(trifluoromethyl)phenyl]methyl 2-{4-[(1R)-1-[(4-chloro-1,6-dimethyl-1H-indol-2-yl)formamido]ethyl]benzenesulfonyl}acetate]	3510 nM	20.1 nM	–
Cc1cc(Cl)c2cc(C(=O)N[C@H](C)c3ccc(S(=O)(=O)CC(=O)OCC4(C)COC4)cc3)n(C)c2c1 [Example 09-012, (3-methyloxetan-3-yl)methyl 2-{4-[(1R)-1-[(4-chloro-1,6-dimethyl-1H-indol-2-yl)formamido]ethyl]benzenesulfonyl}acetate]	303 nM	22.2 nM	–
Cc1cc(Cl)c2cc(C(=O)N[C@H](C)c3ccc(S(=O)(=O)CC(=O)OCC(C)C)cc3)n(C)c2c1 [Example 09-013, 2-methylpropyl 2-{4-[(1R)-1-[(4-chloro-1,6-dimethyl-1H-indol-2-yl)formamido]ethyl]benzenesulfonyl}acetate]	19300 nM	70.1 nM	–
Cc1cc(Cl)c2cc(C(=O)N[C@H](C)c3ccc(S(=O)(=O)CC(=O)OC4CCOCC4)cc3)n(C)c2c1 [Example 09-014, oxan-4-yl 2-{4-[(1R)-1-[(4-chloro-1,6-dimethyl-1H-indol-2-yl)formamido]ethyl]benzenesulfonyl}acetate]	1040 nM	14.7 nM	–
Cc1cc(Cl)c2cc(C(=O)N[C@H](C)c3ccc(S(=O)(=O)CC(=O)OCCS(C)(=O)=O)cc3)n(C)c2c1 [Example 09-020, 2-methanesulfonylethyl 2-{4-[(1R)-1-[(4-chloro-1,6-dimethyl-1H-indol-2-yl)formamido]ethyl]benzenesulfonyl}acetate]	54 nM	37.4 nM	–
CC(=O)OCOC(=O)CS(=O)(=O)c1ccc([C@@H](C)NC(=O)c2cc(-c3ccccc3)nn2C)cc1 [Example 10-003, (acetyloxy)methyl 2-{4-[(1R)-1-[(1-methyl-3-phenyl-1H-pyrazol-5-yl)formamido]ethyl]benzenesulfonyl}acetate]	816 nM	23.7 nM	–
C[C@@H](NC(=O)c1cc(-c2ccc(F)cc2)nn1C)c1ccc(S(=O)(=O)CC(=O)OCC2(C)COC2)cc1 [Example 10-006, (3-methyloxetan-3-yl)methyl 2-{4-[(1R)-1-{[3-(4-fluorophenyl)-1-methyl-1H-pyrazol-5-yl]formamido}ethyl]benzenesulfonyl}acetate]	938 nM	103 nM	–
Cc1cc(Cl)c2cc(C(=O)N[C@H](C)c3ccc(S(=O)(=O)CC(=O)NO)cc3)n(C)c2c1 [Example 14-020, 4-chloro-N-[(1R)-1-{4-[(hydroxycarbamoyl)methanesulfonyl]phenyl}ethyl]-1,6-dimethyl-1H-indole-2-carboxamide]	172 nM	136 nM	–
